Results published in US11155517B2, “4-substituted phenylamine derivatives and their use to protect crops by fighting undesired phytopathogenic micoorganisms” (PI INDUSTRIES LTD., priority 2016, dated 2021).
Read-outs that look alike come from different tables or passages of the source.

How the values were obtained:
Alternaria solani [1] = assay: Alternaria solani (early blight of tomato/potato) in vitro test, radial growth on Potato Dextrose Agar; format: cell-based; conditions: for inhibition of growth at 300 ppm: 168 h, seven days, 25° C., read-out: % control compared to the untreated check (radial growth); for inhibition at 300 ppm: Table 3 comparison, read-out: ALTESO % inhibition
Rhizoctonia solani = Rhizoctonia solani (rice sheath blight/potato black scurf) in vitro test, radial growth on Potato Dextrose Agar; format: cell-based; conditions: for inhibition of growth at 300 ppm: 168 h, seven days, 25° C., read-out: % control compared to the untreated check (radial growth); for inhibition at 300 ppm: Table 3 comparison, read-out: RHIZSO % inhibition
Fusarium culmorum [2] = assay: Fusarium culmorum (foot rot of cereals) in vitro test, radial growth on Potato Dextrose Agar; format: cell-based; conditions: Fusarium culmorum; for inhibition of growth at 300 ppm: 168 h, read-out: % control compared to the untreated check (radial growth); for inhibition at 300 ppm: Table 3 comparison, read-out: FUSACU % inhibition
Corynespora cassicola = assay: Table 3 comparative % inhibition, Corynespora cassicola (CORYCA); format: cell-based; conditions: Table 3 comparison
Pyricularia oryzae [3] = assay: microbe, parasite or virus in culture; format: cell-based; conditions: for inhibition of growth at 300 ppm: 168 h, read-out: % control compared to the untreated check (radial growth); for inhibition at 300 ppm: read-out: PYRIOR % inhibition
Fusarium culmorum [4] = assay: Greenhouse Fusarium culmorum test in wheat, preventive; format: in vivo; conditions: 24 h, read-out: Efficacy (% control), disease severity vs untreated check
Method in brief: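 Young greenhouse wheat sprayed preventively at stated rates (compounds in 2% DMSO/acetone, diluted in water), inoculated one day later with 2×10^6 Fusarium culmorum spores in 2% malt, held at 24 °C, 80-90% RH. Disease severity (0-100%) rated 3, 7, 10 and 15 days after application; % control versus untreated, phytotoxicity also recorded.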

Colletotrichum capsici = Colletotrichum capsici (anthracnose) in vitro test, radial growth on Potato Dextrose Agar; format: cell-based; conditions: Colletotrichum truncatum; for inhibition of growth at 300 ppm: 168 h, seven days, 25° C., read-out: % control compared to the untreated check (radial growth); for inhibition at 300 ppm: Table 3 comparison, read-out: COLLCA % inhibition
Septoria lycopersici = Septoria lycopersici (leaf spot of tomato) in vitro test, radial growth on Potato Dextrose Agar; format: cell-based; conditions: 168 h, seven days, 25° C., read-out: % control compared to the untreated check (radial growth)
Botrytis cinera = assay: Greenhouse Botrytis cinera test in tomato, preventive; format: in vivo; conditions: 24 h, plants sprayed one day before inoculation, read-out: Efficacy (% control), disease severity vs untreated check
Botrytis cinerea = Botrytis cinerea (gray mold) in vitro test, radial growth on Potato Dextrose Agar; format: cell-based; conditions: for inhibition of growth at 300 ppm: 168 h, seven days, 22° C., read-out: % (control) compared to the untreated check (radial growth); for inhibition at 300 ppm: read-out: BOTRCI % inhibition
Alternaria solani [5] = assay: Greenhouse Alternaria solani test in tomato, preventive; format: in vivo; conditions: 24 h, tomato plants sprayed one day before inoculation, read-out: Efficacy (% control), disease severity vs untreated check
Method in brief: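 Preventive test: greenhouse tomato plants sprayed with compounds (2% DMSO/acetone in water) at stated rates, inoculated one day later with Alternaria solani spores (0.24×10^6 in 2% malt), held at 22-24 °C, 90-95% RH. % control versus untreated plants; phytotoxicity also scored.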

Pyricularia oryzae [6] = assay: whole plant or invertebrate; format: in vivo; conditions: 24 h, read-out: Efficacy (% control), disease severity vs untreated check
[7] = Dose 300 ppm, Table 3 comparison

| Structure (SMILES) | inhibition of growth at 300 ppm (Alternaria solani [1]) [%] | inhibition at 300 ppm (Alternaria solani [1]) [%] | inhibition of growth at 300 ppm (Rhizoctonia solani) [%] | inhibition at 300 ppm (Rhizoctonia solani) [%] | inhibition of growth at 300 ppm (Fusarium culmorum [2]) [%] | inhibition at 300 ppm (Fusarium culmorum [2]) [%] | inhibition at 300 ppm (Corynespora cassicola) [%] | inhibition of growth at 300 ppm (Pyricularia oryzae [3]) [%] | inhibition at 300 ppm (Pyricularia oryzae [3]) [%] | pest or weed control at 500 ppm (Fusarium culmorum [4]) [%] | inhibition of growth at 300 ppm (Colletotrichum capsici) [%] | inhibition at 300 ppm (Colletotrichum capsici) [%] | inhibition of growth at 300 ppm (Septoria lycopersici) [%] | pest or weed control at 500 ppm (Botrytis cinera) [%] | inhibition of growth at 300 ppm (Botrytis cinerea) [%] | inhibition at 300 ppm (Botrytis cinerea; [7]) [%] | pest or weed control at 500 ppm (Alternaria solani [5]) [%] | pest or weed control at 500 ppm (Pyricularia oryzae [6]) [%] | inhibition at 300 ppm (Botrytis cinerea) [%] |
| --- | --- | --- | --- | --- | --- | --- | --- | --- | --- | --- | --- | --- | --- | --- | --- | --- | --- | --- | --- |
| CCN(C)C=Nc1cc(C)c(Cc2ccccc2)cc1C [Compound 1, N′-(4-benzyl-2,5-dimethylphenyl)-N-ethyl-N-methylformimidamide] | > 75 | 100 | > 80 | 100 | 75 | 100 | 100 | > 75 | 100 | 70 to 100 | > 80 | 100 | > 70 | 70 to 100 | > 80 | 100 |  |  |  |
| CCN(C)C=Nc1cc(C)c(Cc2ccccc2F)cc1C [Compound 15, N-ethyl-N′-(4-(2-fluorobenzyl)-2,5-dimethylphenyl)-N-methylformimidamide] | > 75 | 100 | > 80 | 100 | 75 | 100 | 100 | > 75 | 100 |  | > 80 | 100 | > 70 | 70 to 100 | > 80 | 100 |  |  |  |
| CCN(C)C=Nc1cc(C)c(Cc2ccccc2F)cc1Cl [Compound 16, N′-(2-chloro-4-(2-fluorobenzyl)-5-methylphenyl)-N-ethyl-N-methylformimidamide] | > 75 | 100 | > 80 | 100 | 75 | 100 | 100 | > 75 | 100 | 70 to 100 | > 80 | 100 | > 70 |  | > 80 | 100 |  |  |  |
| CCN(C)C=Nc1cc(C)c(Cc2ccc(C#N)cc2)cc1C [Compound 48, N′-(4-(4-cyanobenzyl)-2,5-dimethylphenyl)-N-ethyl-N-methylformimidamide] | > 75 |  | > 80 |  | 75 |  |  | > 75 |  |  | > 80 |  | > 70 |  | > 80 |  | 70 to 100 | 70 to 100 |  |
| Cc1cc(N=CN2CCOCC2)c(C)cc1Cc1ccccc1Cl [Compound 63, N-(4-(2-chlorobenzyl)-2,5-dimethylphenyl)-1-morpholinomethanimine] | > 75 |  | > 80 |  | 75 |  |  | > 75 |  |  | > 80 |  | > 70 |  | > 80 |  |  | 70 to 100 |  |
| CCN(C)C=Nc1cc(C)c(Cc2ccccc2)cc1Cl [Compound 74, N′-(4-benzyl-2-chloro-5-methylphenyl)-N-ethyl-N-methylformimidamide] | > 75 | 100 | > 80 | 100 | 75 | 94.5 | 71.2 | > 75 | 100 |  | > 80 | 100 | > 70 |  | > 80 |  |  |  | 94.5 |
| CCN(C)C=Nc1cc(C)c(Cc2ccccc2C(F)(F)F)cc1C [Compound 93, N′-(2,5-dimethyl-4-(2-(trifluoromethyl)benzyl)phenyl)-N-ethyl-N-methylformimidamide] | > 75 |  | > 80 |  | 75 |  |  | > 75 |  |  | > 80 |  | > 70 |  | > 80 |  |  | 70 to 100 |  |
| CCN(C)C=Nc1cc(C)c(Cc2ccc(C(F)(F)F)cc2)cc1C [Compound 94, N′-(2,5-dimethyl-4-(4-(trifluoromethyl)benzyl)phenyl)-N-ethyl-N-methylformimidamide] | > 75 |  | > 80 |  | 75 |  |  | > 75 |  |  | > 80 |  | > 70 | 70 to 100 | > 80 |  |  | 70 to 100 |  |
| CCN(C)C=Nc1cc(C)c(Cc2cc(C(F)(F)F)cc(C(F)(F)F)c2)cc1Cl [Compound 96, N′-(4-(3,5-bis(trifluoromethyl)benzyl)-2-chloro-5-methylphenyl)-N-ethyl-N-methylformimidamide] | > 75 |  |  |  |  |  |  |  |  | 70 to 100 |  |  |  |  |  |  |  | 70 to 100 |  |
| CCN(C)C=Nc1cc(C)c(Cc2ccccc2C(F)(F)F)cc1Cl [Compound 103, N′-(2-chloro-5-methyl-4-(2-(trifluoromethyl)benzyl)phenyl)-N-ethyl-N-methylformimidamide] | > 75 |  | > 80 |  |  |  |  | > 75 |  |  | > 80 |  |  | 70 to 100 | > 80 |  |  | 70 to 100 |  |
| CCN(C)C=Nc1cc(C)c(Cc2ccc(F)cc2Cl)cc1C [Compound 110, N′-(4-(2-chloro-4-fluorobenzyl)-2,5-dimethylphenyl)-N-ethyl-N-methylformimidamide] | > 75 |  | > 80 |  | 75 |  |  | > 75 |  |  | > 80 |  | > 70 |  | > 80 |  |  | 70 to 100 |  |
| CCN(C)C=Nc1cc(C)c(Cc2cccc(Cl)c2Cl)cc1C [Compound 133, N′-(4-(2,3-dichlorobenzyl)-2,5-dimethylphenyl)-N-ethyl-N-methylformimidamide] | > 75 |  | > 80 |  |  |  |  | > 75 |  |  | > 80 |  | > 70 | 70 to 100 | > 80 |  |  | 70 to 100 |  |
| CCN(C)C=Nc1cc(Cl)c(Cc2ccccc2F)cc1Cl [Compound 149, N′-(2,5-dichloro-4-(2-fluorobenzyl)phenyl)-N-ethyl-N-methylformimidamide] | > 75 |  |  |  |  |  |  | > 75 |  | 70 to 100 |  |  |  |  | > 80 |  |  | 70 to 100 |  |
| CCN(C)C=Nc1cc(Cl)c(Cc2cccc(C(F)(F)F)c2)cc1Cl [Compound 183, N′-(2,5-dichloro-4-(3-(trifluoromethyl)benzyl)phenyl)-N-ethyl-N-methylformimidamide] |  |  | > 80 |  |  |  |  | > 75 |  | 70 to 100 |  |  |  |  | > 80 |  |  | 70 to 100 |  |
| Cc1cc(C(C#N)c2cccc(C(F)(F)F)c2)c(C)cc1N=CN(C)C (stereo not drawn) [N′-(4-(cyano(3-(trifluoromethyl)phenyl)methyl)-2,5-dimethylphenyl)-N,N-dimethylformimidamide, reference compound] |  | 79.8 |  | 80.9 |  | 0 | 58.7 |  | 100 |  |  | 41.3 |  |  |  | 77.3 |  |  |  |
| CCN(C)C=Nc1cc(C)c(C(C#N)c2cccc(C(F)(F)F)c2)cc1C (stereo not drawn) [N′-(4-(cyano(3-(trifluoromethyl)phenyl)methyl)-2,5-dimethylphenyl)-N-ethyl-N-methylformimidamide] |  | 100 |  | 100 |  | 0 | 64.4 |  | 100 |  |  | 100 |  |  |  | 100 |  |  |  |
